Experimental data reported in patent publication EP0104070A2, “Fungicidal N-phenylcarbamates” (priority 1982, dated 1984).
Like-named read-outs stand apart in the source and are kept apart here.

Legend:
apple (var: Kogyoku) = experiment: Phytotoxicity to crop plants (Experiment 9), apple; assay type: in vivo; parameters: key: -: No abnormality; +: Abnormality due to phytotoxicity observed in a part of crop plants; ++: Abnormality due to phytotoxicity observed in entire crop plants; +++: Crop plants withered due to phytotoxicity
Text: (§1) Phytotoxicity to crop plants:-

[1] = test system: peanut (var: Chiba hanryusei); experiment: Phytotoxicity to crop plants (Experiment 9), peanut; assay type: in vivo; parameters: key: -: No abnormality; +: Abnormality due to phytotoxicity observed in a part of crop plants; ++: Abnormality due to phytotoxicity observed in entire crop plants; +++: Crop plants withered due to phytotoxicity; conditions: spray, 1000 ppm active ingredient, 10 days
Text: as §1

[2] = test system: wheat (var: Norin No. 61); experiment: Phytotoxicity to crop plants (Experiment 9), wheat; assay type: in vivo; parameters: key: -: No abnormality; +: Abnormality due to phytotoxicity observed in a part of crop plants; ++: Abnormality due to phytotoxicity observed in entire crop plants; +++: Crop plants withered due to phytotoxicity
Text: as §1

[3] = test system: drug-resistant strain of Sphaerotheca fuliginea; conditions: Podosphaera fuliginea, in Cucumis sativus, 240 h, read-out: Prevention value when inoculated with drug-resistant strain (%)
Protocol: (§2) Protective activity test on powdery mildew of cucumber (Sphaerotheca fuliginea):-A flower pot of 90 ml volume was filed with sandy soil, and seeds of cucumber (var: Sagami-hanjiro) were sowed therein. Cultivation was carried out in a greenhouse for 8 days. Onto the resulting seedlings having cotyledons, the test compound formulated in emulsifiable concentrate or wettable powder and diluted with water was sprayed at a rate of 10 ml per pot. […] Ten days thereafter, the infectious state of the plants was observed.
(§3) The disease severity was calculated according to the following equation: [formula]
(§4) The prevention value was calculated according to the following equation: [formula]

[4] = test system: drug-resistant strain of Cercospora beticola; conditions: in Beta vulgaris, 240 h, read-out: Prevention value when inoculated with drug-resistant strain (%)
Protocol: as §3, §4
(§5) Preventive effect on cercospora leaf spot of sugarbeet (Cercospora beticola):-A flower pot of 90 ml volume was filled with sandy soil, and seeds of sugarbeet (var: Detroit dark red) were sowed therein. Cultivation was carried out in a greenhouse for 20 days. Onto the resulting seedlings, the test compound formulated in emulsifiable concentrate or wettable powder and diluted with water was sprayed at a rate of 10 ml per pot. […] The pot was covered with a polyvinyl chloride sheet to make a condition of high humidity, and cultivation was continued in the greenhouse for 10 days.

[5] = test system: drug-sensitive strain of Cercospora beticola; conditions: in Beta vulgaris, 240 h, read-out: Prevention value when inoculated with drug-sensitive strain (%)
Protocol: as §3, §4, §5

[6] = test system: drug-sensitive strain of Sphaerotheca fuliginea; conditions: Podosphaera fuliginea, in Cucumis sativus, 240 h, read-out: Prevention value when inoculated with drug-sensitive strain (%)
Protocol: as §2, §3, §4

[7] = test system: drug-resistant strain of Penicillium italicum; experiment: Preventive effect on green mold of orange (Experiment 7), drug-resistant strain; conditions: orange fruits immersed for 1 minute, 200 ppm active ingredient, 24 days
[8] = test system: drug-resistant strain of Botrytis cinerea; experiment: Preventive effect on gray mold of cucumber (Experiment 5), drug-resistant strain; conditions: cucumber seedlings, spray, mycelial disks, 20°C for 3 days
Protocol: as §3, §4
(§6) Preventive effect on gray mold of cucumber (Botrytis cinerea):-Plastic pots of 90 ml volume was filled with sandy soil, and seeds of cucumber (var: Sagami-hanjiro) were sowed therein. Cultivation was carried out in a greenhouse for 8 days to obtain cucumber seedlings expanding cotyledons. Onto the resulting seedlings, the test compound formulated in emulsifiable concentrate or wettable powder and diluted with water was sprayed at a rate of 10 ml per pot. […] After the plants were infected by incubating under high humidity at 20°C for 3 days, the rates of disease severity were observed.

[9] = test system: drug-sensitive strain of Botrytis cinerea; experiment: Preventive effect on gray mold of cucumber (Experiment 5), drug-sensitive strain; conditions: cucumber seedlings, spray, mycelial disks, 20°C for 3 days
Protocol: as §3, §4, §6

[10] = test system: drug-resistant strain of Cercospora arachidicola; conditions: peanut seedlings, spray, 10 days
Protocol: as §3, §4
(§7) Preventive effect on brown leaf-spot of peanut (Cercospora arachidicola):-
(§8) A plastic pot of 90 ml volume was filled with sandy soil, and seeds of peanut (var: Chiba hanryusei) were sowed therein. Cultivation was carried out in a greenhouse for 14 days. Onto the resulting seedlings, the test compound formulated in emulsifiable concentrate or wettable powder and diluted with water was sprayed at a rate of 10 ml per pot. […] The resulting plants were covered with a polyvinyl chloride sheet to make a humide condition and cultivated in the greenhouse for 10 days.

[11] = test system: drug-sensitive strain of Penicillium italicum; experiment: Preventive effect on green mold of orange (Experiment 7), drug-sensitive strain; conditions: orange fruits immersed for 1 minute, 200 ppm active ingredient, 24 days
[12] = test system: drug-sensitive strain of Cercospora arachidicola; conditions: peanut seedlings, spray, 10 days
Protocol: as §3, §4, §7, §8

[13] = test system: drug-resistant strain of Venturia nashicola; experiment: Preventive effect on scab of pear (Experiment 3), drug-resistant strain; conditions: pear seedlings, spray, 200 ppm active ingredient
Protocol: as §3, §4
(§9) Preventive effect on scab of pear (Venturia nashicola):-
(§10) A plastic pot of 90 ml volume was filled with sandy soil, and seeds of pear (var: Chojuro) were sowed therein. Cultivation was carried out in a greenhouse for 20 days. Onto the resulting seedlings, the test compound formulated in emulsifiable concentrate or wettable powder and diluted with water was sprayed at a rate of 10 ml per pot. […] The resulting plants were placed at 20°C under a condition of high humidity for 3 days and then at 20°C under irradiation with a fluorescent lamp for 20 days.

[14] = test system: drug-sensitive strain of Mycosphaerella melonis; conditions: cucumber seedlings, spray, 200 ppm active ingredient, 25°C for 4 days
Protocol: as §3, §4
(§11) Preventive effect on gummy stem blight of cucumber (Mycosphaerella melonis):-Plastic pots of 90 ml volume was filled with sandy soil, and seeds of cucumber (var: Sagami-hanjiro) were sowed therein. Cultivation was carried out in a greenhouse for 8 days to obtain cucumber seedlings expanding cotyledons. Onto the resulting seedlings, the test compound formulated in emulsifiable concentrate or wettable powder and diluted with water was sprayed at a rate of 10 ml per pot. […] After the plants were infected by incubating under high humidity at 25°C for 4 days, the rates of disease severity were observed.

[15] = test system: drug-resistant strain of Mycosphaerella melonis; conditions: cucumber seedlings, spray, 200 ppm active ingredient, 25°C for 4 days
Protocol: as §3, §4, §11

[16] = test system: drug-sensitive strain of Venturia nashicola; experiment: Preventive effect on scab of pear (Experiment 3), drug-sensitive strain; conditions: pear seedlings, spray, 200 ppm active ingredient
Protocol: as §3, §4, §9, §10

Pyricularia oryzae = assay type: in vivo
[17] = spray, 1000 ppm active ingredient, 10 days

| Structure (SMILES) | Phytotoxicity Apple (apple (var: Kogyoku); [17]) | Phytotoxicity Peanut [1] | Phytotoxicity Wheat [2, 17] | pest or weed control at 200 ppm [3] | pest or weed control at 200 ppm [4] | pest or weed control at 200 ppm [5] | pest or weed control at 200 ppm [6] | Prevention value when inoculated with drug-resistant strain (%) ([8]; 200 ppm active ingredient) | Prevention value when inoculated with drug-sensitive strain (%) ([9]; 200 ppm active ingredient) | Prevention value when inoculated with drug-sensitive strain (%) [14] | Prevention value when inoculated with drug-resistant strain (%) [15] | also measured |
| --- | --- | --- | --- | --- | --- | --- | --- | --- | --- | --- | --- | --- |
| COC(=O)Nc1ccc(Cl)c(Cl)c1 [Swep] | ++ | + | ++ |  |  |  |  |  |  |  |  |  |
| CC(C)OC(=O)Nc1ccccc1 [Propham, isopropyl N-phenylcarbamate] |  |  |  | 0% | 0% | 0% | 0% |  |  |  |  |  |
| CCCCNC(=O)n1c(NC(=O)OC)nc2ccccc21 [Benomyl, methyl 1-(butylcarbamoyl)benzimidazol-2-ylcarba-mate] |  |  |  | 0% | 0% | 100% | 100% | 0% | 100% | 100% | 0% | Prevention value when inoculated with drug-resistant strain (%) [7]: 0%; Prevention value when inoculated with drug-resistant strain (%) ([10]; 200 ppm active ingredient): 0%; Prevention value when inoculated with drug-sensitive strain (%) [11]: 100%; Prevention value when inoculated with drug-sensitive strain (%) ([12]; 200 ppm active ingredient): 100%; Prevention value when inoculated with drug-resistant strain (%) [13]: 0%; Prevention value when inoculated with drug-sensitive strain (%) [16]: 100% |
| C=CCOC(=O)c1cc(NC(=S)OC)cc(COC)c1OCC [Compound No. 25, (3-methoxymethyl-4-ethoxy-5-allyloxycarbonyl)thiocarbanilic acid O-methyl ester] |  |  |  |  |  |  |  |  |  |  |  | Prevention value when inoculated with drug-resistant strain (%) ([8]; 500 ppm active ingredient): 100%; Prevention value when inoculated with drug-sensitive strain (%) ([9]; 500 ppm active ingredient): 0% |
| CCOc1cc(NC(=S)OC)cc(C=NOC)c1OCC [Compound No. 29, (3,4-diethoxy-5-methoxyiminomethyl)thiocarbanilic acid O-methyl ester] |  |  |  |  |  |  |  |  |  |  |  | Prevention value when inoculated with drug-resistant strain (%) ([8]; 500 ppm active ingredient): 100%; Prevention value when inoculated with drug-sensitive strain (%) ([9]; 500 ppm active ingredient): 0% |
| C#CC(C)OC(=O)Nc1cccc(Cl)c1 (centres unmarked) [Chlorbufam, 1-methyl-2-propynyl N-(3-chlorophenyl)carbamate] |  |  |  | 0% | 0% | 0% | 0% |  |  |  |  |  |
| c1ccc2[nH]c(-c3cscn3)nc2c1 [Thiabendazole, 2-(4-thiazolyl)benzimidazole] |  |  |  |  |  |  |  | 0% | 100% |  |  |  |
| COC(=O)Nc1nc2ccccc2[nH]1 [Carbendazim, methyl benz-imidazol-2-ylcarbamate] |  |  |  | 0% | 0% | 100% | 100% |  |  |  |  |  |
| CCOc1c(Cl)cc(NC(=S)OC)cc1COC [Compound No. 13] | - | - | - |  |  |  |  | 100% | 0% | 0% | 100% | Prevention value (%) (Pyricularia oryzae; rice seedlings of 3-leaf stage, spray, 1000 ppm active ingredient, 28°C for 3 days): 97%; Prevention value when inoculated with drug-resistant strain (%) ([10]; 200 ppm active ingredient): 97%; Prevention value when inoculated with drug-sensitive strain (%) ([12]; 200 ppm active ingredient): 0% |
| O=C(Nc1cccc(Cl)c1)OCC#CCCl |  | ++ |  | 25% | 34% | 0% | 0% |  |  |  |  | Phytotoxicity Apple (apple (var: Kogyoku); in vivo): ++; Phytotoxicity Wheat ([2]; in vivo): - |
| CC(C)OC(=O)Nc1cccc(Cl)c1 [Chlorpropham, isopropyl N-(3-chlorophenyl)carbamate] |  |  |  | 0% | 0% | 0% | 0% |  |  |  |  |  |
| O=C(Nc1cccc(Cl)c1)OCCCl [CEPC] | ++ | ++ | - | 0% | 0% | 0% | 0% |  |  |  |  |  |
| CCOc1c(C)cc(NC(=S)OCCF)cc1C [Compound No. 9] | - | - | - | 100% | 100% | 0% | 0% | 100% | 0% | 0% | 94% | Prevention value when inoculated with drug-resistant strain (%) [7]: 94%; Prevention value when inoculated with drug-resistant strain (%) ([10]; 500 ppm active ingredient): 100%; Prevention value when inoculated with drug-sensitive strain (%) [11]: 0%; Prevention value when inoculated with drug-sensitive strain (%) ([12]; 500 ppm active ingredient): 0% |
| CCOc1c(Cl)cc(NC(=S)OC(C)C)cc1COC [Compound No. 14, (3-chloro-4-ethoxy-5-methoxymethyl)thiocarbanilic acid O-isopropyl ester] | - | - | - | 100% |  |  | 0% | 100% | 0% | 0% | 100% | pest or weed control at 500 ppm [4]: 100%; pest or weed control at 500 ppm [5]: 0% |
| COC(=O)NC(=S)Nc1ccccc1NC(=S)NC(=O)OC [Thiophanate-methyl, 1,2-bis(3-methoxycarbonyl-2-thioureido)benzene] |  |  |  | 0% | 0% | 100% | 100% | 0% | 100% | 100% | 0% | Prevention value when inoculated with drug-resistant strain (%) [7]: 0%; Prevention value when inoculated with drug-resistant strain (%) ([10]; 200 ppm active ingredient): 0%; Prevention value when inoculated with drug-sensitive strain (%) [11]: 100%; Prevention value when inoculated with drug-sensitive strain (%) ([12]; 200 ppm active ingredient): 100%; Prevention value when inoculated with drug-resistant strain (%) [13]: 0%; Prevention value when inoculated with drug-sensitive strain (%) [16]: 100% |
| CCOP(=O)(Sc1ccccc1)Sc1ccccc1 [Edifenphos] |  |  |  |  |  |  |  |  |  |  |  | Prevention value (%) (Pyricularia oryzae; in vivo): 97% |
